Test results: patent publication US7205305B2, “Inhibitors of p38” (Vertex Pharmaceuticals Incorporated, priority 1996, dated 2007)

Experiments:
activated p38 [1] = molecular target: T1, activated p38 (Homo sapiens, UniProt Q16539); experiment: Inhibition of phosphorylation of EGF receptor peptide ("kinase"); format: biochemical; conditions: inhibition of phosphorylation of EGF receptor peptide by activated p38
Summary of the method: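 Activated p38 was preincubated with inhibitor for 15 min at room temperature in 100 mM HEPES pH 7.6, 10 mM MgCl2, 25 mM β-glycerophosphate, 10% glycerol, 5% DMSO final. Reaction used 200 μM EGF receptor peptide and 100 μM ATP for 30 min at 30° C. TFA-quenched phosphopeptide was quantified by reverse-phase HPLC.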

activated p38 [2] = molecular target: T1, activated p38; experiment: Inhibition of ATPase activity; format: biochemical; conditions: ATPase activity of activated p38 (60 nM), 30° C., 30 minutes
Method: This assay was carried out in the presence of 10 mM MgCl2, 25 mM β-glycerophosphate, 10% glycerol and 100 mM HEPES buffer at pH 7.6. For a typical Ki determination, the Km for ATP in the ATPase activity of activated p38 reaction was determined in the absence of inhibitor and in the presence of two concentrations of inhibitor. A stock solution was prepared containing all of the above components and activated p38 (60 nM). The stock solution was aliquotted into vials. […] The reaction was initiated by adding various concentrations of ATP and then incubated at 30° C. After 30 minutes, the reactions were quenched with 50 μl of EDTA (0.1 M, final concentration), pH 8.0. The product of p38 ATPase activity, ADP, was quantified by HPLC analysis.
Separation of ADP from ATP was achieved on a reversed phase column (Supelcosil, LC-18, 3 μm, part no. 5–8985) using a binary solvent gradient of following composition: Solvent A—0.1 M phosphate buffer containing 8 mM tetrabutylammonium hydrogen sulfate (Sigma Chemical Co., catalogue no. T-7158), Solvent B—Solvent A with 30% methanol.
Ki was determined from the rate data as a function of inhibitor and ATP concentrations.

[3] = test system: IL-1 production in LPS-stimulated PBMCs; experiment: Inhibition of IL-1 production in LPS-stimulated PBMCs ("cell"); format: cell-based, human; conditions: Homo sapiens, PBMC
Summary of the method: (§1)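 Cytokine levels (IL-1β, TNF-α) in culture supernatants quantified by ELISA, with IC50 taken from dose-response curves. Fresh human PBMCs in RPMI1640 with 10% FBS received serially diluted compound plus LPS (4 ng/ml final) and were cultured 12–15 h at 37 °C, 5% CO2.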

[4] = test system: TNF production in LPS-stimulated PBMCs; experiment: Inhibition of TNF production in LPS-stimulated PBMCs ("cell"); format: cell-based, human; conditions: Homo sapiens, PBMC
Summary of the method: as §1

[5] = test system: IL-6 production in IL-1-stimulated PBMCs; experiment: Inhibition of IL-6 production in IL-1-stimulated PBMCs; format: cell-based; conditions: Homo sapiens, PBMC; IL-1b-stimulated PBMCs, ELISA, overnight incubation
Method: (§2) This assay was carried out on PBMCs exactly the same as above except that 50 μl of an IL-1b working stock solution (2 ng/ml in cell culture medium) was added to the assay instead of the (LPS) working stock solution.
(§3) Cell culture supernatants were harvested as described above and analyzed by ELISA for levels of IL-6 (Endogen, #EH2-IL6) and IL-8 (Endogen, #EH2-IL8) according to the instructions of the manufacturer. The ELISA data were used to generate dose-response curves from which IC50 values were derived.

[6] = test system: IL-8 production in IL-1-stimulated PBMCs; experiment: Inhibition of IL-8 production in IL-1-stimulated PBMCs; format: cell-based; conditions: Homo sapiens, PBMC; IL-1b-stimulated PBMCs, ELISA, overnight incubation
Method: as §2, §3

[7] = test system: LPS induced PGHS-2 expression in PBMCs; experiment: Inhibition of LPS-induced prostaglandin endoperoxide synthase-2 (PGHS-2, or COX-2) induction in PBMCs; format: cell-based, human; conditions: PBMCs, 0.2, 2.0 and 20 μM compound, LPS 4 ng/ml, overnight, anti-COX-2 immunoblot
Method: Human peripheral mononuclear cells (PBMCs) were isolated from fresh human blood buffy coats by centrifugation in a Vacutainer CPT (Becton & Dickinson). We seeded 15×10^6 cells in a 6-well tissue culture dish containing RPMI 1640 supplemented with 10% fetal bovine serum, 50 U/ml penicillin, 50 μg/ml streptomycin, and 2 mM L-glutamine. Compound 6 (above) was added at 0.2, 2.0 and 20 μM final concentrations in DMSO. Then we added LPS at a final concentration of 4 ng/ml to induce enzyme expression. The final culture volume was 10 ml/well.
After overnight incubation at 37° C., 5% CO2, the cells were harvested by scraping and subsequent centrifugation, then the supernatant was removed, and the cells were washed twice in ice-cold DPBS (Dulbecco's phosphate buffered saline, BioWhittaker). The cells were lysed on ice for 10 min in 50 μl cold lysis buffer (20 mM Tris-HCl, pH 7.2, 150 mM NaCl, 1% Triton-X-100, 1% deoxycholic acid, 0.1% SDS, 1 mM EDTA, 2% aprotinin (Sigma), 10 μg/ml pepstatin, 10 μg/ml leupeptin, 2 mM PMSF, 1 mM benzamidine, 1 mM DTT) containing 1 μl Benzonase (DNAse from Merck). The protein concentration of each sample was determined using the BCA assay (Pierce) and bovine serum albumin as a standard. Then the protein concentration of each sample was adjusted to 1 mg/ml with cold lysis buffer. […]

[8] = test system: IL-1 production in whole blood; experiment: Inhibition of IL-1 production in LPS-stimulated whole blood ("WB"); format: cell-based, human; conditions: Homo sapiens
Summary of the method: (§4)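 Anticoagulated whole blood was preincubated with serially diluted compound, then stimulated with 4 ng/ml LPS (final) overnight (12–15 h) at 37° C/5% CO2. Supernatant IL-1b, TNF-α and IL-6 were measured by ELISA and IC50 derived from dose-response curves.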

[9] = test system: TNF production in whole blood; experiment: Inhibition of TNF production in LPS-stimulated whole blood ("WB"); format: cell-based, human; conditions: Homo sapiens
Summary of the method: as §4

[10] = test system: IL-6 production in whole blood; experiment: Inhibition of IL-6 production in LPS-stimulated whole blood ("WB"); format: cell-based, human; conditions: Homo sapiens
Summary of the method: as §4

T1 sequence (Q16539 whole entry): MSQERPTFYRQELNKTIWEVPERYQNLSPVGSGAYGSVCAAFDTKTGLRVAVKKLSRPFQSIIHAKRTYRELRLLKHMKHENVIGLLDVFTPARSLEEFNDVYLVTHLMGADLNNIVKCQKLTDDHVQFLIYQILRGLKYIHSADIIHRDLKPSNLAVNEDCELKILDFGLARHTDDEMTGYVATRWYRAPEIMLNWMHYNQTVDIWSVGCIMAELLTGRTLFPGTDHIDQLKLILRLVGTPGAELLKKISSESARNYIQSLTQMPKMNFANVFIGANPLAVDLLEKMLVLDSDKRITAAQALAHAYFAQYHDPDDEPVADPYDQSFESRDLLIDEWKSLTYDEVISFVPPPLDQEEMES

O=c1ncn2nc(Sc3ccccc3)ccc2c1-c1ccc(F)cc1 [Compound 2]
IC50 (activated p38 [1]): ≥ 1000 nM
Ki (activated p38 [2]): 15000 nM

O=c1ncn2nc(Sc3ccccc3)ccc2c1-c1c(Cl)cccc1Cl [Compound 6]
IC50 (activated p38 [1]): 100 to 1000 nM
Ki (activated p38 [2]): 400 nM
IC50 [3]: 100 to 500 nM
IC50 [4]: ≥ 500 nM
IC50 [5]: 600 nM
IC50 [6]: 850 nM
LPS induced PGHS-2 expression [7]: inhibits LPS induced PGHS-2 expression in PBMCs

COc1ccc(C2=C3C=CC(Sc4ccc(F)cc4)=NN3CNC2=O)c(Cl)c1 [Compound 139]
IC50 (activated p38 [1]): ≤ 100 nM
IC50 [3]: ≤ 100 nM
IC50 [4]: ≥ 500 nM
IC50 [8]: ≥ 500 nM
IC50 [9]: ≥ 500 nM
IC50 [10]: ≥ 500 nM

NC(=O)C(c1cccc(-c2ccccc2)n1)c1cc(Cl)ccc1Cl (stereo not shown) [Compound 349]
IC50 (activated p38 [1]): ≥ 1000 nM
IC50 [3]: 100 to 500 nM
IC50 [4]: ≥ 500 nM
IC50 [8]: ≥ 500 nM
IC50 [9]: ≥ 500 nM
IC50 [10]: ≥ 500 nM

Cc1ccc(Sc2ccc3c(-c4ccc(Cl)cc4Cl)c(=O)ncn3n2)cc1 [Compound 5]
IC50 (activated p38 [1]): ≥ 1000 nM
Ki (activated p38 [2]): 2900 nM

Cc1ccccc1-c1cccc(N(C(N)=O)c2c(F)cccc2F)n1 [Compound 403]
IC50 (activated p38 [1]): ≤ 100 nM
IC50 [3]: ≤ 100 nM
IC50 [4]: ≤ 100 nM
IC50 [8]: ≥ 500 nM
IC50 [9]: ≥ 500 nM
IC50 [10]: 250 to 500 nM

O=C(CCl)Nc1ccc(C2=C3C=CC(Sc4ccc(F)cc4)=NN3CNC2=O)c(Cl)c1 [Compound 141]
IC50 (activated p38 [1]): ≤ 100 nM
IC50 [3]: ≤ 100 nM
IC50 [4]: ≤ 100 nM
IC50 [8]: ≥ 500 nM
IC50 [9]: ≥ 500 nM
IC50 [10]: ≥ 500 nM

O=c1ncn2nc(Sc3ccccc3)ccc2c1-c1ccc(Cl)cc1Cl [Compound 3]
IC50 (activated p38 [1]): ≥ 1000 nM
Ki (activated p38 [2]): 5000 nM

O=C(CCl)Nc1ccc(-c2c(=O)ncn3nc(Sc4ccc(F)cc4)ccc23)c(Cl)c1 [Compound 49]
IC50 (activated p38 [1]): 100 to 1000 nM
IC50 [3]: ≤ 100 nM
IC50 [4]: ≥ 500 nM
IC50 [8]: ≥ 500 nM
IC50 [9]: ≥ 500 nM
IC50 [10]: ≥ 500 nM
